Like-named read-outs stand apart in the source and are kept apart here.
Experiments:
in vivo = assay: in vivo; design: species or system baboon; conditions: po
Procedure: Additionally, the pharmacokinetic profile of DMB was evaluated in a female baboon who received an IV dose of 50 mg/kg and single oral doses of 100, 150 and 200 mg/kg. Following IV administration, DMB concentrations peaked at the end of dose administration and decayed in a log-linear fashion with no obvious appearance of a distribution phase and after oral administration, the concentration reached a peak within 2 hours after dosing and subsequently decayed in a log-linear fashion at all three dose levels. There was a secondary DMB peak which occurred at 6 hours after dosing of the 200 mg/kg oral dose (FIG. 4).
Vz/F was consistently smaller as the dose was increased.

CYP1A2 = target: T1, CYP1A2 (Homo sapiens, UniProt P05177); assay: Cytochrome P450 inhibition in human hepatic microsomes; type: in vitro ADME
T1 construct: from tissue; host or cells: human hepatic microsomes
T1 sequence (P05177 whole entry): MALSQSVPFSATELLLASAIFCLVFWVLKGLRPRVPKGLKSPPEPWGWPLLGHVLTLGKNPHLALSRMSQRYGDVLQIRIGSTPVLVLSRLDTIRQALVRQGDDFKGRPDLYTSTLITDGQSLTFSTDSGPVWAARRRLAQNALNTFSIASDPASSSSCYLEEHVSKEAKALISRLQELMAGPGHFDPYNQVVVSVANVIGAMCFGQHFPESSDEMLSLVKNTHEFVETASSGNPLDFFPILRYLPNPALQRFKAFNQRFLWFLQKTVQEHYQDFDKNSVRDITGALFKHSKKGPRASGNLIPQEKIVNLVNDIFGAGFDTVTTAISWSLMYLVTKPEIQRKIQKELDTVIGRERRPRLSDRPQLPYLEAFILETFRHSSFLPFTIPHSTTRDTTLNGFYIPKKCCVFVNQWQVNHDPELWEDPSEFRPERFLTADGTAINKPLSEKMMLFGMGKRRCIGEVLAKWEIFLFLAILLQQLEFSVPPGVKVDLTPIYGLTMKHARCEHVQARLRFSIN
Procedure: (§1) The inhibitory potential of DMB on the human cytochrome P450 activities involved in the metabolism of phenacetin O-deethylase (CYP1A2), bupropion hydroxylase (CYP2B6), amodiaquine N-deethylase (CYP2C8), diclofenac 4′-hydroxylase (CYP2C9), S-mephenyloin 4′-hydroxylase (CYP2C19), bufuralol 1′-hydroxylase (CYP2D6), testosterone 6β-hydroxylase (CYP3A), and midazolam 1′-hydroxylase (CYP3A) was assessed in vitro using human hepatic microsomes. Microsomes were incubated with isoenzyme-selective substrates at concentrations approximating the Km value in the absence and presence of DMB (at concentrations ranging from 0.1 to […]). The extent of inhibition was assessed by comparing activities from control and DMB-treated microsomes. […] Percent activity remaining was high for all cytochrome P450 assays with 80% activity remaining compared with control activities.

CYP2B6 = target: T2, CYP2B6 (Homo sapiens, UniProt P20813); assay: as above; type: in vitro ADME
T2 construct: from tissue; host or cells: human hepatic microsomes
T2 sequence (P20813 whole entry): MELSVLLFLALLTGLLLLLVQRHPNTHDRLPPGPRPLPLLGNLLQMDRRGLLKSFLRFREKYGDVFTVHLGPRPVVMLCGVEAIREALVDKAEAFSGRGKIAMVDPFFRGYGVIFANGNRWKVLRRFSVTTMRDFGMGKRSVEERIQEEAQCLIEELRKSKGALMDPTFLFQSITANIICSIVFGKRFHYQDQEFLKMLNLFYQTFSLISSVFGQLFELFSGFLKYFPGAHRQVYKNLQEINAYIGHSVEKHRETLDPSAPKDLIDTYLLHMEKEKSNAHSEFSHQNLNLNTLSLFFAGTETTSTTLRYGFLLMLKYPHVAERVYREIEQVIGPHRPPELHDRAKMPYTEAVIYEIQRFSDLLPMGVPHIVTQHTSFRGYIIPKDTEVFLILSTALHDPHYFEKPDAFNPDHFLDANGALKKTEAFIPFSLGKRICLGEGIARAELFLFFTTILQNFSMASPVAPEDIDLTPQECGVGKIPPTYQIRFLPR
Procedure: as §1

CYP2C19 = target: T3, CYP2C19 (Homo sapiens, UniProt P33261); assay: as above; type: in vitro ADME
T3 construct: from tissue; host or cells: human hepatic microsomes
T3 sequence (P33261 whole entry): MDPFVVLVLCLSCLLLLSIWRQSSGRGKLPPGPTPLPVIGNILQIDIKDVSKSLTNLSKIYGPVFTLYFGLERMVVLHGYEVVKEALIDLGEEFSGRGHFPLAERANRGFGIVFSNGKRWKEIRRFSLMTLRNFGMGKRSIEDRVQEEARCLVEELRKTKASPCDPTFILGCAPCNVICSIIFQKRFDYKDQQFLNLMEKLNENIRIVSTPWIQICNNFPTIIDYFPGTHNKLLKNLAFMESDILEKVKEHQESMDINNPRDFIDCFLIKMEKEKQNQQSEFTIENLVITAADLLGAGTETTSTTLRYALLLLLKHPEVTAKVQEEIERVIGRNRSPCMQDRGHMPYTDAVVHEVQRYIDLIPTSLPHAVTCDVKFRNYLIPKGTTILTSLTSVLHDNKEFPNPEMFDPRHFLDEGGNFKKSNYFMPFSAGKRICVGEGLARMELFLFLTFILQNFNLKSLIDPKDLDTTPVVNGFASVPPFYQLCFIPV
Procedure: as §1

CYP2C8 = target: T4, CYP2C8 (Homo sapiens, UniProt P10632); assay: as above; type: in vitro ADME
T4 construct: from tissue; host or cells: human hepatic microsomes
T4 sequence (P10632 whole entry): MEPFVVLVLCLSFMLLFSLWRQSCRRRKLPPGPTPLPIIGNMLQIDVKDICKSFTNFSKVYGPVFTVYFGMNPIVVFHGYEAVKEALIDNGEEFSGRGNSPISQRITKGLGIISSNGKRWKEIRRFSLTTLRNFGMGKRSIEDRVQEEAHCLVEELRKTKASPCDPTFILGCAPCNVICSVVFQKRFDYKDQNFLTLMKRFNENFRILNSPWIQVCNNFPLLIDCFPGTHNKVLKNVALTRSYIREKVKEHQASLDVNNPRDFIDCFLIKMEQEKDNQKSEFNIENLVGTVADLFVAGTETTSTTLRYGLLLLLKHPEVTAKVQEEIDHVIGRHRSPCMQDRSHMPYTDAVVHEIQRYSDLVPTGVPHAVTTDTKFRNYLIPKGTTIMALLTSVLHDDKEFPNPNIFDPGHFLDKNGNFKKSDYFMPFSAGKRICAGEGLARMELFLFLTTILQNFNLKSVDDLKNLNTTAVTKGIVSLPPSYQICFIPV
Procedure: as §1

CYP2C9 = target: T5, CYP2C9 (Homo sapiens, UniProt P11712); assay: as above; type: in vitro ADME
T5 construct: from tissue; host or cells: human hepatic microsomes
T5 sequence (P11712 whole entry): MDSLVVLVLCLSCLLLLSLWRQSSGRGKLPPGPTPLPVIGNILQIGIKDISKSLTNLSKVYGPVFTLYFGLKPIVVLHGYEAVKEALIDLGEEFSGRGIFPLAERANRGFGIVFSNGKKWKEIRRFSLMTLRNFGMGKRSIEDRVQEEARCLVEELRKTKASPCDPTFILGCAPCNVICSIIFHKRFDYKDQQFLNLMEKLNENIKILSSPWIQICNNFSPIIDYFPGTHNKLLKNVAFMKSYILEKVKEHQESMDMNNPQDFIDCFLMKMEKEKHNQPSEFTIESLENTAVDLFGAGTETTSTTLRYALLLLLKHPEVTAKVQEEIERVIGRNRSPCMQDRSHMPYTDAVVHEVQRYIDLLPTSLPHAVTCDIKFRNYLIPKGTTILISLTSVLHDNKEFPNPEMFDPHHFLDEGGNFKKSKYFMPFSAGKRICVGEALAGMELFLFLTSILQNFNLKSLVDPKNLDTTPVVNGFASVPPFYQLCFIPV
Procedure: as §1

CYP2D6 = target: T6, CYP2D6 (Homo sapiens, UniProt P10635); assay: as above; type: in vitro ADME
T6 construct: from tissue; host or cells: human hepatic microsomes
T6 sequence (P10635 whole entry): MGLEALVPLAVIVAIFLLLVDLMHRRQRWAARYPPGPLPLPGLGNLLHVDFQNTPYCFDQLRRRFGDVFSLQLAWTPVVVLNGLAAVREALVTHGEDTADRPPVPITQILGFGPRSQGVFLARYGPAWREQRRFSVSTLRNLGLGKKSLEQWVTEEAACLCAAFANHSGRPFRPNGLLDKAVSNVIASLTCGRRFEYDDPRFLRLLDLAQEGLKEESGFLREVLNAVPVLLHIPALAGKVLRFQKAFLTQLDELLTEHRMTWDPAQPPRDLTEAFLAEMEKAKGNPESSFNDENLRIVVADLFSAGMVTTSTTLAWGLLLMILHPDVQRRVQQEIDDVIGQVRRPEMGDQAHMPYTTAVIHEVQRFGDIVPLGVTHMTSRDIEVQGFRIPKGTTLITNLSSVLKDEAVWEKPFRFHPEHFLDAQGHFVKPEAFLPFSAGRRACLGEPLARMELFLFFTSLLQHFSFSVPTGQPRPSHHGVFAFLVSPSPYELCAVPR
Procedure: as §1

CYP3A = assay: as above; type: in vitro ADME
Procedure: as §1

[1] = test system: human peripheral lymphocytes; assay: Chromosome aberrations in human peripheral lymphocytes; type: cell-based
Procedure: DMB was examined for the potential to induce chromosome aberrations in human peripheral lymphocytes in the presence and absence of an exogenous metabolic activation system (S9 mix). In the 3-hour cultures (without or with activation), the highest three concentrations (2450, 3500, and 5000 μg/mL) were analyzed for chromosome aberrations. In the 22-hour treatment, 288, 412 and 588 μg/ML were analyzed for chromosome aberrations. […] The aberrations in control cultures were within historical ranges. DMB was therefore considered negative for inducing structural or numerical chromosome aberrations in human peripheral lymphocytes with and without metabolic activation.

[2] = Immunotoxicology weight-of-evidence analysis, repeat dose rat study; type: in vivo, Sprague Dawley rat
Excerpt: The immunotoxicological potential of DMB has been evaluated by a weight-of-evidence analysis of the data generated in the repeat dose Sprague Dawley rat and Beagle dog studies. In both studies, there were no effects of treatment on WBC levels or lymph node histopathology, which are predictive of potential immunotoxicity.

[3] = Phase 1 repeat-dose clinical study, pharmacokinetics; type: in vivo, human; conditions: for AUC(0-t): read-out: AUC0-24
Procedure: DMB was evaluated in a phase 1, placebo-controlled, randomized, repeat dose clinical study that evaluated tolerability, safety, and pharmacokinetics in healthy volunteers. A total of 41 subjects (31 receiving active drug and 10 receiving placebo) completed 14 consecutive days of study medication at daily dose levels of 5, 10 or 15 mg/kg (10 subjects received placebo). Given the importance of iron in red blood cell production, and the requirement for iron supplementation for induction of HbF with other erythropoietic agents, subjects at all 3 dose levels received oral ferrous gluconate on the study medication days. DMB was administered with food to all but one group (5 mg/kg, cohort 1). Subjects were admitted and observed for 24 hours following initial dosing. Thereafter, the study drug was taken once per day at home, except for the last study day. The subjects were monitored weekly for 6 weeks. Thirty-seven subjects completed the study and 4 subjects dropped out due to conflicts. Safety and PK data are available on these subjects.
The treatment groups included: Cohort 1: 5 mg/kg fasting, 6 active, 2 placebo; Cohort 2: 5 mg/kg with food, 7 active, 2 placebo (3 drop outs); Cohort 3: 5 mg/kg with food and iron supplements, 6 active, 2 placebo (1 drop out); Cohort 4: 10 mg/kg with food and iron supplements, 6 active, 2 placebo; and Cohort 5: 15 mg/kg with food and iron supplements, 6 active, 2 placebo. Subjects in Cohorts 3, 4, and 5 received a single daily dose of ferrous gluconate (325 mg). The iron supplement was administered to evaluate study medication tolerability when taken with iron. No subjects discontinued due to AEs or safety concerns. Fewer subjects reported an event in the highest dose cohort following eating a meal ([…]) than were reported in the lower dose cohorts ([…], 5 and 10 mg/kg).
Pharmacokinetic (PK) analyses of individual subject plasma concentration-time data were conducted for Day 0 (first dose) and Day 13 (at steady-state) in the multi-dose study. […] Analysis of PK data has shown that plasma drug levels >20 ug/mL persist for greater than 10 hours at the 10 and 15 mg/kg dose levels.

[4] = compared with control activities

CCC(C)(C)C(=O)[O-].[Na+] [DMB, Sodium 2,2-dimethylbutyrate]
half-life (in vivo; female, monkey): 2.89 to 6.92 h | bioavailability (in vivo; female, monkey, 100 mg/kg): 71.8% | Tmax (in vivo; female, monkey, 200 mg/kg): 1.5 to 2 h | CL/F at 200 mg/kg relative to the lower doses (in vivo; 200 mg/kg): about ¼ | inhibition of phenacetin O-deethylase (CYP1A2) (CYP1A2; DMB up to 300 μM): no significant inhibition | Percent activity remaining, phenacetin O-deethylase (CYP1A2) (CYP1A2; [4]): 80% | inhibition of bupropion hydroxylase (CYP2B6) (CYP2B6; DMB up to 300 μM): no significant inhibition | Percent activity remaining, bupropion hydroxylase (CYP2B6) (CYP2B6; [4]): 80% | inhibition of S-mephenyloin 4′-hydroxylase (CYP2C19) (CYP2C19; DMB up to 300 μM): no significant inhibition | Percent activity remaining, S-mephenyloin 4′-hydroxylase (CYP2C19) (CYP2C19; [4]): 80% | inhibition of amodiaquine N-deethylase (CYP2C8) (CYP2C8; DMB up to 300 μM): no significant inhibition | Percent activity remaining, amodiaquine N-deethylase (CYP2C8) (CYP2C8; [4]): 80% | inhibition of diclofenac 4′-hydroxylase (CYP2C9) (CYP2C9; DMB up to 300 μM): no significant inhibition | Percent activity remaining, diclofenac 4′-hydroxylase (CYP2C9) (CYP2C9; [4]): 80% | inhibition of bufuralol 1′-hydroxylase (CYP2D6) (CYP2D6; DMB up to 300 μM): no significant inhibition | Percent activity remaining, bufuralol 1′-hydroxylase (CYP2D6) (CYP2D6; [4]): 80% | inhibition of midazolam 1′-hydroxylase (CYP3A) (CYP3A; DMB up to 300 μM): no significant inhibition | inhibition of testosterone 6β-hydroxylase (CYP3A) (CYP3A; DMB up to 300 μM): no significant inhibition | Percent activity remaining, midazolam 1′-hydroxylase (CYP3A) (CYP3A; [4]): 80% | Percent activity remaining, testosterone 6β-hydroxylase (CYP3A) (CYP3A; [4]): 80% | numerical aberrations (polyploidy or endoreduplication) [1]: No test article-related increase | structural chromosome aberrations compared to vehicle-treated cultures ([1]; 3 h ± S9 up to 5000 μg/mL, 22 h up to 588 μg/mL): no test article-related increases | induction of structural or numerical chromosome aberrations ([1]; with and without metabolic activation): negative | effects on WBC levels or lymph node histopathology [2]: no effects | time for which plasma drug levels >20 ug/mL persist ([3]; 10 and 15 mg/kg dose levels): greater than 10 hours | time for which targeted plasma drug levels were maintained ([3]; 10 and 15 mg/kg dose levels): more than 10 hours | AUC(0-t) ([3]; human, plasma, oral, 5 mg/kg, Day 0, fed, with iron): 226 µg·h/mL | Cmax ([3]; human, plasma, oral, 5 mg/kg, Day 0, fed, with iron, read-out: mean plasma Cmax): 16300 ng/mL | AUC(0-t) ([3]; human, plasma, oral, 5 mg/kg, Day 0, without iron): 241 µg·h/mL | Cmax ([3]; human, plasma, oral, 5 mg/kg, Day 0, without iron, read-out: Average Cmax): 17700 ng/mL | Cmax ([3]; human, plasma, oral, 5 mg/kg, Day 13, fed, with iron, read-out: Cmax): 24800 ng/mL | AUC ([3]; human, plasma, oral, 5 mg/kg, Day 13, with iron): 360 µg·h/mL | AUC ([3]; human, plasma, oral, 5 mg/kg, Day 13, without iron): 312 µg·h/mL | Cmax ([3]; human, plasma, oral, 5 mg/kg, Day 13, without iron, read-out: Average Cmax): 22400 ng/mL | AUC(0-t) ([3]; human, plasma, oral, 10 mg/kg, Day 0, fed): 441 µg·h/mL | Cmax ([3]; human, plasma, oral, 10 mg/kg, Day 0, fed, read-out: mean plasma Cmax): 30600 ng/mL | AUC ([3]; human, plasma, oral, 10 mg/kg, Day 13): 538 µg·h/mL | Cmax ([3]; human, plasma, oral, 10 mg/kg, Day 13, read-out: Cmax): 35700 ng/mL | AUC(0-t) ([3]; human, plasma, oral, 15 mg/kg, Day 0, fed): 697 µg·h/mL | Cmax ([3]; human, plasma, oral, 15 mg/kg, Day 0, fed, read-out: mean plasma Cmax): 48300 ng/mL | AUC ([3]; human, plasma, oral, 15 mg/kg, Day 13): 958 µg·h/mL | Cmax ([3]; human, plasma, oral, 15 mg/kg, Day 13, read-out: Cmax): 67600 ng/mL | Tmax ([3]; human, plasma, oral, all dose levels, both days, dosing with food): 2.5 to 4.4 h | half-life ([3]; human, plasma, oral, doses of 10 and 15 mg/kg, read-out: mean T1/2 (converted)): 11 h

Reference: patent publication US8618068B2, “Methods and low dose regimens for treating red blood cell disorders” (priority 2009, dated 2013)
